The values that follow are results of earlier work, collected in patent publication US20070071679A1, “Methylamine risks and treatment of hyperactivity, depression, and alcoholism with epinephrine-N-quinolines” (priority 2005, published 2007).

Where two headings read alike, the source gives them in different places.

In data set [1] the test system is active sleep in a rat model. The note with it: during ontogenetic development.
Data set [2] concerns active sleep in kittens. Conditions: 6-OHDA pretreated, two weeks and one month of postnatal age.
In data set [3] the test system is sleep-waking cycles of cats. Conditions: for restoration of relative proportions of stages of sleep-waking cycles towards baseline: cats treated with monoamine reuptake inhibitor; for paradoxical (REM) sleep / active sleep: dose not given.
The subject of data set [4] is limbic forebrain and cerebellum of rats.
Data set [5] relates to paradoxical (REM) sleep in rats. The note with it: for percentage of paradoxical (REM) sleep: rats aged 34 months, between 4 and 12 hours after i.p. administration.
The subject of data set [6] is active sleep in kittens.
The test system of a further data set is cerebral blood flow. The note with it: cats.
Data set [7] has as its system regional cerebral blood flow. Conditions: human beings.
For a further data set, the system named is human patients. The note with it: antihypertensive treatment.
Data set [8] concerns prepubertal boys and patients with narcolepsy or symptomatic hypersomnia.
[9] abbreviates: cats, 0.5 mg/kg of body weight intraperitoneally.

Take `CC(C)NCC(O)c1ccc(O)c(O)c1` (centres unmarked) [isoproterenol]: in data set [1], the active sleep result was “increase active sleep”.
Turning to `Clc1cccc(Cl)c1N=C1NCCN1` [clonidine], in the data set with active sleep in kittens [2] (0.01 mg/kg i.p.), the active sleep result is “suppresses active sleep”. Moreover, the “paradoxical sleep (REM sleep)” value in data set [3] (mature cats, 0.01 mg/kg i.p.) is “suppresses paradoxical sleep”.
On to `CC(C)NCC(O)COc1cccc2ccccc12` (centres unmarked) [propranolol], for which the “concentrations of serotonin and 5-HIAA” value in data set [4] (after exposure during early development) was “lack of effect”. Moreover, the “content of norepinephrine in the limbic forebrain and cerebellum” value in [4] (at the age of five months after early postnatal exposure) is reported as “increased content of norepinephrine”. For the same molecule, the “restoration of relative proportions of stages of sleep-waking cycles towards baseline” value in [3] is “not”.
With `CNCCCC1(c2ccccc2)CC(C)(C)c2ccccc21` (centres unmarked) [Prindamine], the REM sleep latency entry in data set [3] (cats, i.p. administration) is listed as “lengthening”. Also, the “proportion of time cats are in REM sleep” value in [3] (during 16 hours after i.p. administration) is “approximately 7%”.
As for `COc1cc2nc(N3CCN(C(=O)c4ccco4)CC3)nc(N)c2cc1OC` [prazosin], in the data set on active sleep in kittens [2] (0.5 mg/kg i.p.), the active sleep result is “does not affect active sleep”. In addition, in data set [3], the “restoration of relative proportions of stages of sleep-waking cycles towards baseline” value is given as “not”. In addition, in [3] (mature cats, 0.5 mg/kg i.p.), the paradoxical sleep entry was “increases paradoxical sleep”. The “paradoxical (REM) sleep / active sleep” value in data set [3] (mature cats) is given as “increases paradoxical (REM) sleep”. For the same molecule, the “percentage of paradoxical (REM) sleep” value in data set [5] was “increase”.
Turning to `Cc1ccc(N(CC2=NCCN2)c2cccc(O)c2)cc1` [phentolamine], the “duration of the episodes cats were in REM sleep” value in the data set on REM sleep of cats (REM sleep deprivation plus 20 mg/kg i.p. at the beginning of recovery, n.s.) is 6.5 ± 1.9 min. In the data set on REM sleep of cats (given at the beginning of recovery after REM sleep deprivation), the “number of REM episodes” value is recorded as “did not affect”. For the same molecule, the active sleep result in the data set with active sleep in kittens [6] is “increase active sleep”. Besides, the cerebral blood flow entry in the data set with cerebral blood flow is reported as “doubled”. Further, in data set [3], the “restoration of relative proportions of stages of sleep-waking cycles towards baseline” value is given as “restores significantly”. Besides, the “paradoxical (REM) sleep / active sleep” value in data set [3] (mature cats) is recorded as “increase active sleep”. Also, the “regional cerebral blood flow” value in data set [7] is reported as “does not affect”. Besides, in data set [5] (rats), the “frequency of REM sleep episodes in sleep-waking cycles” value is recorded as “increases the frequency of REM sleep episodes”. The “percentage of paradoxical (REM) sleep” value in data set [5] is recorded as “increase”.
`CC(C)NCC(O)COc1cccc2[nH]ccc12` (centres unmarked) [pindolol]: the “amount of REM sleep” value in data set [3] (cats, 0.1 mg/kg of body weight intraperitoneally) is reported as “not”. Also, in data set [3] (setting [9]), the “amount of REM sleep” value is reported as “increases the amount of REM sleep” and the “amount of drowsy wakefulness” value was “increases the amount of drowsy wakefulness”.
As to `COC(=O)[C@H]1[C@H]2C[C@@H]3c4[nH]c5cc(OC)ccc5c4CCN3C[C@H]2C[C@@H](OC(=O)c2cc(OC)c(OC)c(OC)c2)[C@@H]1OC` [reserpine], the “share of treated patients with clinical depression” value with human patients was “one fourth”.
For `COC(=O)[C@@H]1[C@H]2C[C@H]3c4[nH]c5ccccc5c4CCN3C[C@@H]2CC[C@@H]1O` [yohimbine], the “restoration of relative proportions of stages of sleep-waking cycles towards baseline” value in data set [3] is on record as “not”.
Consider `CC(C)NC[C@H](O)COc1ccc(O)cc1` [prenalterol], for which, in [3] (mature cats), the “paradoxical (REM) sleep / active sleep” value is listed as “increases the amount of paradoxical (REM) sleep”.
For arginine-vasotocin, the “rapid eye movement sleep” value in data set [8] is recorded as “induce rapid eye movement sleep”.
